pKi: −log10 of the molar value.
Columns and labels:
Type in all cases: biochemical
[1] = target: PKC theta kinase (Homo sapiens, UniProt Q04759); assay: PKC theta coupled-enzyme kinase assay (NADH consumption); details: 240 μM ATP, 18 nM PKC theta, 30° C.
Protocol: An assay buffer solution was prepared which consisted of 100 mM HEPES (pH 7.5), 10 mM MgCl2, 25 mM NaCl, 0.1 mM EDTA and 0.01% Brij. An enzyme buffer containing reagents to final assay concentrations of 0.00001% Triton X-100, 200 μg/mL Phosphatidylserine, 20 μg/mL Diacylglycerol, 360 μM NADH, 3 mM phosphoenolpyruvate, 70 μg/mL pyruvate kinase, 24 μg/mL lactate dehydrogenase, 2 mM DTT, 100 μM substrate peptide (ERMRPRKRQGSVRRRV SEQ ID NO. 1) and 18 nM PKC theta kinase was prepared in assay buffer. To 60 μL of this enzyme buffer, in a 384 well plate, was added 2 μL of VRT stock solution in DMSO. The mixture was allowed to equilibrate for 10 mins at 30° C. The enzyme reaction was initiated by the addition of 5 μL stock ATP solution prepared in assay buffer to a final assay concentration of 240 μM. Initial rate data was determined from the rate of change of absorbance at 340 nm (corresponding to stoichiometric consumption of NADH) using a Molecular Devices Spectramax plate reader (Sunnyvale, Calif.) over 15 mins at 30° C. For each Ki determination 12 data points covering the VRT concentration range of 0-20 μM were obtained in duplicate (DMSO stocks were prepared from an initial 10 mM VRT stock with subsequent 1:2 serial dilutions). Ki values were calculated from initial rate data by non-linear regression using the Prism software package (Prism 4.0a, Graphpad Software, San Diego, Calif.).

[2] = target: PKC alpha kinase (Homo sapiens, UniProt P17252); assay: PKC alpha coupled-enzyme kinase assay (NADH consumption); details: 130 μM ATP, 4.5 nM PKC alpha, 30° C.
Protocol: An assay buffer solution was prepared which consisted of 100 mM HEPES (pH 7.5), 10 mM MgCl2, 25 mM NaCl, 0.1 mM EDTA, 100 μM CaCl2 and 0.01% Brij. An enzyme buffer containing reagents to final assay concentrations of 0.002% Triton X-100, 100 μg/mL Phosphatidylserine, 20 μg/mL Diacylglycerol, 360 μM NADH, 3 mM phosphoenolpyruvate, 70 μg/mL pyruvate kinase, 24 μg/mL lactate dehydrogenase, 2 mM DTT, 150 μM substrate peptide (RRRRRKGSFKRKA SEQ ID NO. 1) and 4.5 nM PKC alpha kinase was prepared in assay buffer. To 16 μL of this enzyme buffer, in a 384 well plate, was added 1 μL of VRT stock solution in DMSO. The mixture was allowed to equilibrate for 10 mins at 30° C. The enzyme reaction was initiated by the addition of 16 μL stock ATP solution prepared in assay buffer to a final assay concentration of 130 μM. Initial rate data was determined from the rate of change of absorbance at 340 nm (corresponding to stoichiometric consumption of NADH) using a Molecular Devices Spectramax plate reader (Sunnyvale, Calif.) over 15 mins at 30° C. […] Ki values were calculated from initial rate data by non-linear regression using the Prism software package (Prism 4.0a, Graphpad Software, San Diego, Calif.).

[3] = target: PKC delta kinase (Homo sapiens, UniProt Q05655); assay: PKC delta coupled-enzyme kinase assay (NADH consumption); details: 150 μM ATP, 46 nM PKC delta, 30° C.
Protocol: An assay buffer solution was prepared which consisted of 100 mM HEPES (pH 7.5), 10 mM MgCl2, 25 mM NaCl, 0.1 mM EDTA and 0.01% Brij. An enzyme buffer containing reagents to final assay concentrations of 0.002% Triton X-100, 200 μg/mL Phosphatidylserine, 20 μg/mL Diacylglycerol, 360 μM NADH, 3 mM phosphoenolpyruvate, 70 μg/mL pyruvate kinase, 24 μg/mL lactate dehydrogenase, 2 mM DTT, 150 μM substrate peptide (ERMRPRKRQGSVRRRV SEQ ID NO. 2) and 46 nM PKC delta kinase was prepared in assay buffer. To 16 μL of this enzyme buffer, in a 384 well plate, was added 1 μL of VRT stock solution in DMSO. The mixture was allowed to equilibrate for 10 mins at 30° C. The enzyme reaction was initiated by the addition of 16 μL stock ATP solution prepared in assay buffer to a final assay concentration of 150 μM. Initial rate data was determined from the rate of change of absorbance at 340 nm (corresponding to stoichiometric consumption of NADH) using a Molecular Devices Spectramax plate reader (Sunnyvale, Calif.) over 15 mins at 30° C. For each Ki determination 12 data points covering the VRT concentration range of 0-20 μM were obtained in duplicate (DMSO stocks were prepared from an initial 10 mM VRT stock with subsequent 1:2 serial dilutions). Ki values were calculated from initial rate data by non-linear regression using the Prism software package (Prism 4.0a, Graphpad Software, San Diego, Calif.).

PKC delta kinase, sequence (Q05655 whole entry): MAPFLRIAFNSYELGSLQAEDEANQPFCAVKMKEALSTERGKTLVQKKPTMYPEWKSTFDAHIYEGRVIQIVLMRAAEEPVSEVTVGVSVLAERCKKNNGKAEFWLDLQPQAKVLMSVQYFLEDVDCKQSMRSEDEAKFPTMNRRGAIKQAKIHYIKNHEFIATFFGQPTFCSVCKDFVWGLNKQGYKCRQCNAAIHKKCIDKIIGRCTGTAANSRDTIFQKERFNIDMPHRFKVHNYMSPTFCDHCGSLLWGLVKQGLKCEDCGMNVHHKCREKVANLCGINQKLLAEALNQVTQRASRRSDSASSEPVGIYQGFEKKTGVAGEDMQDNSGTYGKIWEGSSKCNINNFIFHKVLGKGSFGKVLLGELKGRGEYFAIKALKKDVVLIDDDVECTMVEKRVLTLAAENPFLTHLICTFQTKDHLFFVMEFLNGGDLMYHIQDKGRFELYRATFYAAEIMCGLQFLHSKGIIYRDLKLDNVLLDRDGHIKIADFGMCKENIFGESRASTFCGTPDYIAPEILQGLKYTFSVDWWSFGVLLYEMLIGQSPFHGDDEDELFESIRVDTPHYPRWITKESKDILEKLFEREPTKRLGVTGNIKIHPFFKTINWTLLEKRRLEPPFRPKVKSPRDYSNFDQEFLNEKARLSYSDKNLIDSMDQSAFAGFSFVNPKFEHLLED
PKC theta kinase, sequence (Q04759 whole entry): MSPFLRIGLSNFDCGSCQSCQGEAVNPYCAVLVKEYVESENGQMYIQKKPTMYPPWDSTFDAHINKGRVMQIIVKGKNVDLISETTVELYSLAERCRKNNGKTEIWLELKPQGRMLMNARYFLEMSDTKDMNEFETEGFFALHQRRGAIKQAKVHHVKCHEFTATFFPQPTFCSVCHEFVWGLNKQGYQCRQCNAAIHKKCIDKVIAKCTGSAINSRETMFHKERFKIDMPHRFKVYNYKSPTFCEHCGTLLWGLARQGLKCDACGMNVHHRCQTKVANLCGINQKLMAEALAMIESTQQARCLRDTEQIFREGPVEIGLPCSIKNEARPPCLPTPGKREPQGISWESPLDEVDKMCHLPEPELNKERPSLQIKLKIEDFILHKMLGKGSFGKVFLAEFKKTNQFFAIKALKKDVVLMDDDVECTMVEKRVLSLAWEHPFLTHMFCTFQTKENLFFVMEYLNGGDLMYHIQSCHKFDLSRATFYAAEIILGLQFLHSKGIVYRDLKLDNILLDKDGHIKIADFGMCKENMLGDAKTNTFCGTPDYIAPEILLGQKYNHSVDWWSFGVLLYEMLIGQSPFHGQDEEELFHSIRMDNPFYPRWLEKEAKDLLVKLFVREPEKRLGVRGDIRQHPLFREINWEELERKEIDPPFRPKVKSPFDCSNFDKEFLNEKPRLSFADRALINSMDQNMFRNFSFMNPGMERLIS

| Compound | pKi [1] | pKi [2] | pKi [3] |
| --- | --- | --- | --- |
| CCOc1ncnc2[nH]nc(-c3cccc(N4CCNC(CC(C)C)C4)n3)c12 (stereo not drawn) [Compound 1, 4-ethoxy-3-(6-(3-isobutylpiperazin-1-yl)pyridin-2-yl)-1H-pyrazolo[3,4-d]pyrimidine] | > 5.55 | < 5.90 | < 5.90 |
| CC(C)[C@@](C)(O)[C@@H]1CN(c2nc(-c3n[nH]c4ncncc34)c(F)cc2F)CCN1 [Compound 2, (R)-2-((S)-4-(3,5-difluoro-6-(1H-pyrazolo[3,4-d]pyrimidin-3-yl)pyridin-2-yl)piperazin-2-yl)-3-methylbutan-2-ol] | > 9.00 | > 5.55 | > 6.30 |

— patent publication US8809335B2, “Pyrazolopyrimidine kinase inhibitors” (Vertex Pharmaceuticals Incorporated, priority 2010, dated 2014)
